Test results from BindingDB's records for doi:10.1124/jpet.105.096792 (University of Tours, 2006).

Biological target: Sodium-dependent dopamine transporter (Rattus norvegicus, UniProt P23977)
Sequence (P23977 whole entry): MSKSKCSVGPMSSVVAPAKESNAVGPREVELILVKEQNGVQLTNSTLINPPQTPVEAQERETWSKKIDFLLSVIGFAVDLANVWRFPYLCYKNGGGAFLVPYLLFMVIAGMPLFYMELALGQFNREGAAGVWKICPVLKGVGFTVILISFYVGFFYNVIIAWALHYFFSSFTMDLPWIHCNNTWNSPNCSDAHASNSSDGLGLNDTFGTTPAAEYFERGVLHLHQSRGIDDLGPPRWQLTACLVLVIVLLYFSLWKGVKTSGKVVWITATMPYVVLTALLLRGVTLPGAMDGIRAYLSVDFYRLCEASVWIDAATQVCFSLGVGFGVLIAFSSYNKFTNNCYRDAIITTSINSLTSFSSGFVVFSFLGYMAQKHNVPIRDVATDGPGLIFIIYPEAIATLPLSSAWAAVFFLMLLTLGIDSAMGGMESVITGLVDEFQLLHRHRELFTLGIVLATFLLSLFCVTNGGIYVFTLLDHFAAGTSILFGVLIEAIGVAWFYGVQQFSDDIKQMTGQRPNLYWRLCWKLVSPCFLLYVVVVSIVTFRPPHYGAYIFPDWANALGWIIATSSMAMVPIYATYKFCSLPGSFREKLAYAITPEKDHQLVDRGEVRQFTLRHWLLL

Row | Compound | Ki [nM]
1 | COC(=O)[C@H]1[C@@H](c2ccc(C)cc2)C[C@@H]2CC[C@H]1N2C/C=C/I | 18
2 | Cc1ccc(Sc2ccccc2CN(C)C)c(N)c1 [2-(2-Dimethylaminomethyl-phenylsulfanyl)-5-methyl-phenylamine] | 1000
